# Measured values: PubChem BioAssay (NCI)
#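 Exposure lasted 48 hours, with cells grown in 96-well plates and compounds tested at five concentrations. Here, GI50 denotes the concentration required for 50% inhibition of growth. TGI: concentration producing complete growth inhibition.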
# Assays:
# Assay in all cases: DTP human tumour cell line panel, 48 h
# HOP-92 NSCLC = tested on: HOP-92 NSCLC
# SNB-19 CNS = tested on: SNB-19 CNS
# PC-3 prostate = tested on: PC-3 prostate
# A549 NSCLC = tested on: A549 NSCLC
# OVCAR-5 ovarian = tested on: OVCAR-5 ovarian
# NCI-H226 lung = tested on: NCI-H226 lung
# MOLT-4 leukemia = tested on: MOLT-4 leukemia
# UO-31 renal = tested on: UO-31 renal
# HCC-2998 colon = tested on: HCC-2998 colon
# U251 CNS = tested on: U251 CNS
# EKVX NSCLC = tested on: EKVX NSCLC
# NCI-H460 lung = tested on: NCI-H460 lung
# T-47D breast = tested on: T-47D breast
# BT-549 breast = tested on: BT-549 breast
# COLO 205 colon = tested on: COLO 205 colon
# SF-539 CNS = tested on: SF-539 CNS
# SF-268 CNS = tested on: SF-268 CNS
# UACC-257 melanoma = tested on: UACC-257 melanoma
# NCI/ADR-RES ovarian = tested on: NCI/ADR-RES ovarian
# OVCAR-3 ovarian = tested on: OVCAR-3 ovarian
# MDA-MB-231 breast = tested on: MDA-MB-231 breast
# HT29 colon = tested on: HT29 colon
# UACC-62 melanoma = tested on: UACC-62 melanoma
# SK-OV-3 ovarian = tested on: SK-OV-3 ovarian
# TK-10 renal = tested on: TK-10 renal
# SK-MEL-28 melanoma = tested on: SK-MEL-28 melanoma
# HOP-62 NSCLC = tested on: HOP-62 NSCLC
# ACHN renal = tested on: ACHN renal
# DU-145 prostate = tested on: DU-145 prostate
# A498 renal = tested on: A498 renal
# SK-MEL-2 melanoma = tested on: SK-MEL-2 melanoma
# MCF7 breast = tested on: MCF7 breast
# RXF 393 renal = tested on: RXF 393 renal
# OVCAR-8 ovarian = tested on: OVCAR-8 ovarian
# MDA-MB-435 = tested on: MDA-MB-435
# CCRF-CEM leukemia = tested on: CCRF-CEM leukemia
# SF-295 CNS = tested on: SF-295 CNS
# HCT-15 colon = tested on: HCT-15 colon
# HL-60(TB) leukemia = tested on: HL-60(TB) leukemia
# KM12 colon = tested on: KM12 colon
# MALME-3M melanoma = tested on: MALME-3M melanoma
# SN12C renal = tested on: SN12C renal
# OVCAR-4 ovarian = tested on: OVCAR-4 ovarian
# CAKI-1 renal = tested on: CAKI-1 renal
# SW-620 colon = tested on: SW-620 colon
# HS 578T breast = tested on: HS 578T breast
# NCI-H23 lung = tested on: NCI-H23 lung
# 786-0 renal = tested on: 786-0 renal
# SNB-75 CNS = tested on: SNB-75 CNS
# LOX IMVI melanoma = tested on: LOX IMVI melanoma
# SR leukemia = tested on: SR leukemia
# K-562 leukemia = tested on: K-562 leukemia
# HCT-116 colon = tested on: HCT-116 colon
# RPMI-8226 leukemia = tested on: RPMI-8226 leukemia
# SK-MEL-5 melanoma = tested on: SK-MEL-5 melanoma
smiles,measurement,setting,value
N#Cc1nc2c(S(=O)(=O)c3ccccc3)c(N)n(Cc3cccnc3)c2nc1C#N,GI50,HOP-92 NSCLC,4.71 µM
same,TGI,HOP-92 NSCLC,28.5 µM
same,GI50,SNB-19 CNS,21.9 µM
same,TGI,SNB-19 CNS,72.4 µM
same,GI50,PC-3 prostate,> 100 µM
same,TGI,PC-3 prostate,> 100 µM
same,GI50,A549 NSCLC,> 100 µM
same,TGI,A549 NSCLC,> 100 µM
same,GI50,OVCAR-5 ovarian,> 100 µM
same,TGI,OVCAR-5 ovarian,> 100 µM
same,GI50,NCI-H226 lung,28.9 µM
same,TGI,NCI-H226 lung,> 100 µM
same,GI50,MOLT-4 leukemia,> 100 µM
same,TGI,MOLT-4 leukemia,> 100 µM
same,GI50,UO-31 renal,13.5 µM
same,TGI,UO-31 renal,> 100 µM
same,GI50,HCC-2998 colon,> 100 µM
same,TGI,HCC-2998 colon,> 100 µM
same,GI50,U251 CNS,9.35 µM
same,TGI,U251 CNS,33.6 µM
same,GI50,EKVX NSCLC,81.9 µM
same,TGI,EKVX NSCLC,> 100 µM
same,GI50,NCI-H460 lung,> 100 µM
same,TGI,NCI-H460 lung,> 100 µM
same,GI50,T-47D breast,5.8 µM
same,TGI,T-47D breast,52.1 µM
same,GI50,BT-549 breast,4.6 µM
same,TGI,BT-549 breast,37.3 µM
same,GI50,COLO 205 colon,> 100 µM
same,TGI,COLO 205 colon,> 100 µM
same,GI50,SF-539 CNS,3.25 µM
same,TGI,SF-539 CNS,23.7 µM
same,GI50,SF-268 CNS,4.26 µM
same,TGI,SF-268 CNS,22.7 µM
same,GI50,UACC-257 melanoma,> 100 µM
same,TGI,UACC-257 melanoma,> 100 µM
same,GI50,NCI/ADR-RES ovarian,92.5 µM
same,TGI,NCI/ADR-RES ovarian,> 100 µM
same,GI50,OVCAR-3 ovarian,3.48 µM
same,TGI,OVCAR-3 ovarian,> 100 µM
same,GI50,MDA-MB-231 breast,11.8 µM
same,TGI,MDA-MB-231 breast,52.2 µM
same,GI50,HT29 colon,> 100 µM
same,TGI,HT29 colon,> 100 µM
same,GI50,UACC-62 melanoma,20.7 µM
same,TGI,UACC-62 melanoma,> 100 µM
same,GI50,SK-OV-3 ovarian,18.8 µM
same,TGI,SK-OV-3 ovarian,67.5 µM
same,GI50,TK-10 renal,26.1 µM
same,TGI,TK-10 renal,97 µM
same,GI50,SK-MEL-28 melanoma,27.8 µM
same,TGI,SK-MEL-28 melanoma,> 100 µM
same,GI50,HOP-62 NSCLC,17.4 µM
same,TGI,HOP-62 NSCLC,41.4 µM
same,GI50,ACHN renal,80.7 µM
same,TGI,ACHN renal,> 100 µM
same,GI50,DU-145 prostate,24.7 µM
same,TGI,DU-145 prostate,> 100 µM
same,GI50,A498 renal,17.2 µM
same,TGI,A498 renal,55.5 µM
same,GI50,SK-MEL-2 melanoma,> 100 µM
same,TGI,SK-MEL-2 melanoma,> 100 µM
same,GI50,MCF7 breast,13.1 µM
same,TGI,MCF7 breast,> 100 µM
same,GI50,RXF 393 renal,2470 nM
same,TGI,RXF 393 renal,9.1 µM
same,GI50,OVCAR-8 ovarian,10.9 µM
same,TGI,OVCAR-8 ovarian,> 100 µM
same,GI50,MDA-MB-435,> 100 µM
same,TGI,MDA-MB-435,> 100 µM
same,GI50,CCRF-CEM leukemia,3.86 µM
same,TGI,CCRF-CEM leukemia,> 100 µM
same,GI50,SF-295 CNS,20.5 µM
same,TGI,SF-295 CNS,50.7 µM
same,GI50,HCT-15 colon,> 100 µM
same,TGI,HCT-15 colon,> 100 µM
same,GI50,HL-60(TB) leukemia,3.71 µM
same,TGI,HL-60(TB) leukemia,> 100 µM
same,GI50,KM12 colon,> 100 µM
same,TGI,KM12 colon,> 100 µM
same,GI50,MALME-3M melanoma,3.7 µM
same,TGI,MALME-3M melanoma,27.3 µM
same,GI50,SN12C renal,26.6 µM
same,TGI,SN12C renal,> 100 µM
same,GI50,OVCAR-4 ovarian,> 100 µM
same,TGI,OVCAR-4 ovarian,> 100 µM
same,GI50,CAKI-1 renal,7.47 µM
same,TGI,CAKI-1 renal,> 100 µM
same,GI50,SW-620 colon,> 100 µM
same,TGI,SW-620 colon,> 100 µM
same,GI50,HS 578T breast,1810 nM
same,TGI,HS 578T breast,5.52 µM
same,GI50,NCI-H23 lung,40 µM
same,TGI,NCI-H23 lung,> 100 µM
same,GI50,786-0 renal,22.2 µM
same,TGI,786-0 renal,79.3 µM
same,GI50,SNB-75 CNS,3.35 µM
same,TGI,SNB-75 CNS,20.2 µM
same,GI50,LOX IMVI melanoma,25.8 µM
same,TGI,LOX IMVI melanoma,> 100 µM
same,GI50,SR leukemia,8.59 µM
same,TGI,SR leukemia,> 100 µM
same,GI50,K-562 leukemia,> 100 µM
same,TGI,K-562 leukemia,> 100 µM
same,GI50,HCT-116 colon,9.13 µM
same,TGI,HCT-116 colon,> 100 µM
same,GI50,RPMI-8226 leukemia,> 100 µM
same,TGI,RPMI-8226 leukemia,> 100 µM
same,GI50,SK-MEL-5 melanoma,> 100 µM
same,TGI,SK-MEL-5 melanoma,> 100 µM
